pIC50, pKi: −log10 of the molar value.
Columns and labels:
[1] = molecular target: Acetylcholinesterase (Electrophorus electricus, UniProt O42275); experiment: Inhibition of electric eel AChE at 100 uM
[2] = molecular target: Acetylcholinesterase (Homo sapiens) (UniProt P22303); experiment: Inhibition of human recombinant AChE at 200 uM
[3] = molecular target: Cholinesterase (Homo sapiens, UniProt P06276); experiment: Inhibition of human BuChE at 10 uM
[4] = molecular target: T1, Cholinesterase (Equus caballus, UniProt P81908); experiment: Mixed inhibition of equine serum BChE using butyrylthiocholine iodide as substrate; assay type: cell-free
[5] = molecular target: T1, Cholinesterase; experiment: Inhibition of equine serum BuChE; assay type: cell-free
[6] = Permeability of compound by PAMPA-BBB assay; assay type: ADME; conditions: read-out: permeability

T1 sequence (P81908 whole entry): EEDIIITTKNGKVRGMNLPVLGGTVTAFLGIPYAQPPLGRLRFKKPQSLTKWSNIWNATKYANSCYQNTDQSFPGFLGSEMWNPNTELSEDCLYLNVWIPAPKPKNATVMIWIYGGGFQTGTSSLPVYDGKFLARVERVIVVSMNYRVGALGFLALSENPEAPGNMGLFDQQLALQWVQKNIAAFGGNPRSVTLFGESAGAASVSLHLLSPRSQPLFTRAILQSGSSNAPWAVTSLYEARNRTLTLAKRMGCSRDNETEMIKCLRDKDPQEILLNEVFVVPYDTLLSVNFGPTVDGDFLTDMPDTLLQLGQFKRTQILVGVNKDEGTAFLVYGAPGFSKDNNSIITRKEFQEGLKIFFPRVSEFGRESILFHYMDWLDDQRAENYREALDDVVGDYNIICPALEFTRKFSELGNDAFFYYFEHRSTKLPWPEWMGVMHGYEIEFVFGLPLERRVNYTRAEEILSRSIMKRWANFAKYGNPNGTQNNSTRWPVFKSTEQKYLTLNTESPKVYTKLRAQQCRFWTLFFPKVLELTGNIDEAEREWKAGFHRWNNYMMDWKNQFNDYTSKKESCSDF
Chain of Acetylcholinesterase (O42275 whole entry): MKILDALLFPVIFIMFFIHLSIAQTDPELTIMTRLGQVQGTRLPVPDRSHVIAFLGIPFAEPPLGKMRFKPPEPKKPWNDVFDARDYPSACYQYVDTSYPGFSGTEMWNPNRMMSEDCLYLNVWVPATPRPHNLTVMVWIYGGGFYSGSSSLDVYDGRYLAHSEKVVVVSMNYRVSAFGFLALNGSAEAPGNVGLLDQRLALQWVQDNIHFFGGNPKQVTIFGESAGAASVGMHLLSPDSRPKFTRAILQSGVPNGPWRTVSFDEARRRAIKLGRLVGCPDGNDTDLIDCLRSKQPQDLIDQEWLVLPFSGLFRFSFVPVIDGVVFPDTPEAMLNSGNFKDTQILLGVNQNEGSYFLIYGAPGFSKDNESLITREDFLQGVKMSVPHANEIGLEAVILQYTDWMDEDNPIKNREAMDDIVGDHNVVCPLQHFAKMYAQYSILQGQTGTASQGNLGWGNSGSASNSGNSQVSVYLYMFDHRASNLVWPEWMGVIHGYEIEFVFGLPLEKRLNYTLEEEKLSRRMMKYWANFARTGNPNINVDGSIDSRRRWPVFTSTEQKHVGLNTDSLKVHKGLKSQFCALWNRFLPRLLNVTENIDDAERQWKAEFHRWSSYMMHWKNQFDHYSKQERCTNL
Chain of Acetylcholinesterase (Homo sapiens) (P22303 whole entry): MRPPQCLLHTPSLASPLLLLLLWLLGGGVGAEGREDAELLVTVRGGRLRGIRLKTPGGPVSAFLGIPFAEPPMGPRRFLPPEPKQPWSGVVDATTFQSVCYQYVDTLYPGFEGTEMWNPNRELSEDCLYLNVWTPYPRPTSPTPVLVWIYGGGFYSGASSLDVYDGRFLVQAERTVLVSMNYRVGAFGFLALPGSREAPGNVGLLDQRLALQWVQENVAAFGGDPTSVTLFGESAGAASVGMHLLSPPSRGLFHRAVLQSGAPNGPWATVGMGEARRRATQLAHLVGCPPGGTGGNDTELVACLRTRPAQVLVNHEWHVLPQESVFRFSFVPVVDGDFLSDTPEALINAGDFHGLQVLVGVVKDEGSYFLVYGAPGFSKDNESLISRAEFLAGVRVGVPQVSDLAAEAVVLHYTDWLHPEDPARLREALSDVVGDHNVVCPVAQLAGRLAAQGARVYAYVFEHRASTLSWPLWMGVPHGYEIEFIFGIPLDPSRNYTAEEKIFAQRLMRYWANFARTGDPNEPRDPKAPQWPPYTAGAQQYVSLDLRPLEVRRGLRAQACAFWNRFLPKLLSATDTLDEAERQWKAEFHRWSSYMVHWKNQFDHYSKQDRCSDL
Chain of Cholinesterase (Homo sapiens, UniProt P06276) (P06276 whole entry): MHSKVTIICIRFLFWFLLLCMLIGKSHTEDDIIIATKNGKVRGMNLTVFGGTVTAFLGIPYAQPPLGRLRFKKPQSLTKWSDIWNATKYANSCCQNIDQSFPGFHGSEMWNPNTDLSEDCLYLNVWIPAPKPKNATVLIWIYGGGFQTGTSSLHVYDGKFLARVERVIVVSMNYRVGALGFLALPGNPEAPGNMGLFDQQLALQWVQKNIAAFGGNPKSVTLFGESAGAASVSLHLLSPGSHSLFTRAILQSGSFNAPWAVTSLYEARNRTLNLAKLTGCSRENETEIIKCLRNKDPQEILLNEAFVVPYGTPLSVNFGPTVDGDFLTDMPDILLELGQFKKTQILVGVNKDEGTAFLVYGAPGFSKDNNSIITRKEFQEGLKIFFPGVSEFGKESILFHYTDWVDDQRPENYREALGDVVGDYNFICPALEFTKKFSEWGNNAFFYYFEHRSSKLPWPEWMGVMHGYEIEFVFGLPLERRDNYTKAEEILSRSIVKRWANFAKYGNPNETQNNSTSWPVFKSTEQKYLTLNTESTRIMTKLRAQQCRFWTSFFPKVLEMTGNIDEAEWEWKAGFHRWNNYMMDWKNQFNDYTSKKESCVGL

Compound	IC50 [1]	inhibition [2] [%]	pIC50 [3]	pKi [4]	pIC50 [5]	Papp [6] [nm/s]
COc1ccc(-c2cc(C(=O)N3CCN(Cc4ccccc4)CC3)c3ccccc3n2)cc1	Not Active	8	5.62	5.28	5.48	12.8
COc1ccccc1C1CCN(Cc2c(C)[nH]c3ccccc23)CC1	Not Active	–	–	–	4.91	–

From ChEMBL document CHEMBL4699569, “Rapid discovery of a selective butyrylcholinesterase inhibitor using structure-based virtual screening” (Bioorg Med Chem Lett, 2020)
